The target in experiment [1] is Calcium/calmodulin-dependent protein kinase type II subunit gamma (Homo sapiens, UniProt Q13555).
The target in experiment [2] is Tyrosine-protein kinase FRK (Homo sapiens, UniProt P42685).
Experiment [3] deals with T1, Glycine--tRNA ligase (Homo sapiens, UniProt P41250).
T1 sequence (P41250 whole entry): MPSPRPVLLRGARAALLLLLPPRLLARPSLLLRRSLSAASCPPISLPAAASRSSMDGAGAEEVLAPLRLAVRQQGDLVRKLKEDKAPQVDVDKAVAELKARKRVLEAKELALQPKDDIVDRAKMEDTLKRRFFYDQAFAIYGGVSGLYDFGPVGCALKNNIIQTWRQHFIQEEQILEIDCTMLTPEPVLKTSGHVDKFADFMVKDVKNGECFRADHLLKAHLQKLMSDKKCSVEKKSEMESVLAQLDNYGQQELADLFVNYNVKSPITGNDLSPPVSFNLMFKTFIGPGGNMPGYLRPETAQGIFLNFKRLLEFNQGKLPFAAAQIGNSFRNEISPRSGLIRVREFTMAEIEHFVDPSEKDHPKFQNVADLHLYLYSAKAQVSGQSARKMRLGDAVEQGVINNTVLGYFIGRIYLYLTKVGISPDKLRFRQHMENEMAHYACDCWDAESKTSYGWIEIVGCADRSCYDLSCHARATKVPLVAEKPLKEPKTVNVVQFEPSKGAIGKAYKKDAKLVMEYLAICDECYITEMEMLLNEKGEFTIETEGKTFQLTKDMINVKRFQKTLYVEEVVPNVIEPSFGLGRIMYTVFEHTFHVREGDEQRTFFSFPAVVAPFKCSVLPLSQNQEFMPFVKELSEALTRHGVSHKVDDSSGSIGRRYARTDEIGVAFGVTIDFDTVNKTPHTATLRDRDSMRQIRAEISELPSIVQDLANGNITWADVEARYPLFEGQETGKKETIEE

Experiment [4] has as its target Dual specificity mitogen-activated protein kinase kinase 1 (Homo sapiens, UniProt Q02750).
In experiment [5] the target is cAMP-dependent protein kinase catalytic subunit beta (Homo sapiens, UniProt P22694).
Experiment [6] has as its target Protein kinase C alpha type (Homo sapiens, UniProt P17252).
Experiment [7] addresses Focal adhesion kinase 1 (Homo sapiens, UniProt Q05397).
Experiment [8] concerns the target T2, ADP/ATP translocase 2 (Homo sapiens, UniProt P05141).
T2 sequence (P05141 whole entry): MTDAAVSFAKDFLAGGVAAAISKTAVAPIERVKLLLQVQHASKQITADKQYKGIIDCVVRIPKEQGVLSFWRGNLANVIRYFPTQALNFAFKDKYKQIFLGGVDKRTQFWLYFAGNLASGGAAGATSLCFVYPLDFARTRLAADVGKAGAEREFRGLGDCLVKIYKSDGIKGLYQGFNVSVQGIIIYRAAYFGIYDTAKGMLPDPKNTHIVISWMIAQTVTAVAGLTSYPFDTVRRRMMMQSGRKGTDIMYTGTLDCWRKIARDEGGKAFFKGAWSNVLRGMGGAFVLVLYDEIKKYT

In experiment [9] the target is T3, Thyroid hormone receptor-associated protein 3 (Homo sapiens, UniProt Q9Y2W1).
T3 sequence (Q9Y2W1 whole entry): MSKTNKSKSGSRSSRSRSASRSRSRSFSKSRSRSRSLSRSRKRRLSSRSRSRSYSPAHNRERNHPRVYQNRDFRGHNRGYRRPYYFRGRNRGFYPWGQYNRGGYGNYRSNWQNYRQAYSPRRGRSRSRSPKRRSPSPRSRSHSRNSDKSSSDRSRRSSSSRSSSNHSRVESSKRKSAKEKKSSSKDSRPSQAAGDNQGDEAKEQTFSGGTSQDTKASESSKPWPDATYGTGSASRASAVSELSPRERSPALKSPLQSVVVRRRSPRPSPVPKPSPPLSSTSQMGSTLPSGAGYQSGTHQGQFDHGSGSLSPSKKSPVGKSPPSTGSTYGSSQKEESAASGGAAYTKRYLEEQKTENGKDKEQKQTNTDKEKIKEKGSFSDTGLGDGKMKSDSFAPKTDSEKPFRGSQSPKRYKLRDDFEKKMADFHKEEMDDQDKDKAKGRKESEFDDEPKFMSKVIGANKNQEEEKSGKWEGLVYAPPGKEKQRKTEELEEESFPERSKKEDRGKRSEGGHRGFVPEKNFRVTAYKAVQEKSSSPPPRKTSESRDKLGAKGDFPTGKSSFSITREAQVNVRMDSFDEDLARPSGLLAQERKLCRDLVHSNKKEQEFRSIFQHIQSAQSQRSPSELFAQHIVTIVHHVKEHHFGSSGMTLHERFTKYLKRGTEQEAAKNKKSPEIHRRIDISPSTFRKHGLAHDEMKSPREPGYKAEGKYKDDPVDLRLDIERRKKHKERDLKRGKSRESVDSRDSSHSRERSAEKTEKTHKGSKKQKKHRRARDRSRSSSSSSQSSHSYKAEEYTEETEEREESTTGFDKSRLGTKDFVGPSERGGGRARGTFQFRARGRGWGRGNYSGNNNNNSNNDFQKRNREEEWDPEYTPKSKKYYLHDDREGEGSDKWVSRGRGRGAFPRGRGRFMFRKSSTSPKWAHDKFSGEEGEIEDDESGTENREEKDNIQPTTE

Activity calls are given as the source filed them. Rule as the data show it, for most assays here: actives have a measured Kd and inactives only a lower limit.
Also: in the data inactive means no Kd found up to 30 µM.

Chain of Calcium/calmodulin-dependent protein kinase type II subunit gamma (Q13555 whole entry): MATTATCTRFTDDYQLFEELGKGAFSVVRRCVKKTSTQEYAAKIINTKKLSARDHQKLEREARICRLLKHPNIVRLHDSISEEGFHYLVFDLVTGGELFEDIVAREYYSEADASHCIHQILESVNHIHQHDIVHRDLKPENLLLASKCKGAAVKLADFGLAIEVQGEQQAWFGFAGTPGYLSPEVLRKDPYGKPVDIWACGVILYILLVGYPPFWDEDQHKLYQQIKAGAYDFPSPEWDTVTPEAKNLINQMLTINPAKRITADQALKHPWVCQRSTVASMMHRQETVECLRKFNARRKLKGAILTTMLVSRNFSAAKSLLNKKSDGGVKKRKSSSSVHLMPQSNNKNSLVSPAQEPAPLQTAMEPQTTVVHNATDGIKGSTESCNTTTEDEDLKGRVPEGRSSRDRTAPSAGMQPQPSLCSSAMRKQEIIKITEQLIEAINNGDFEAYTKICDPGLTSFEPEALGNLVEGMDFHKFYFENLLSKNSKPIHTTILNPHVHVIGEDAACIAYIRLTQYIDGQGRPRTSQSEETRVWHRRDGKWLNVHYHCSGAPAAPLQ
Chain of Tyrosine-protein kinase FRK (P42685 whole entry): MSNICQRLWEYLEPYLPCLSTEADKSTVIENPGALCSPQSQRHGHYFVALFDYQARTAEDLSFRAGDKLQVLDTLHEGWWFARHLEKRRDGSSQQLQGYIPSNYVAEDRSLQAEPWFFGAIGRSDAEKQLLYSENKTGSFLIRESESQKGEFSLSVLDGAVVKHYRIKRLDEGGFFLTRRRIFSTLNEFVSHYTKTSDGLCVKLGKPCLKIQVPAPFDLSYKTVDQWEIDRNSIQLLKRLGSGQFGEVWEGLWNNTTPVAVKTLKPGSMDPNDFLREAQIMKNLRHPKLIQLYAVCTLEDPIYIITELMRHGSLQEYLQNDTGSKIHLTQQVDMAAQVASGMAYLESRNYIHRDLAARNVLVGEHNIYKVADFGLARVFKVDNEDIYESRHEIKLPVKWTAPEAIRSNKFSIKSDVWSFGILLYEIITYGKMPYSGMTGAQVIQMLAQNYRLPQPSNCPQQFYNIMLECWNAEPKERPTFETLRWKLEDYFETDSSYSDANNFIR
Chain of Dual specificity mitogen-activated protein kinase kinase 1 (Q02750 whole entry): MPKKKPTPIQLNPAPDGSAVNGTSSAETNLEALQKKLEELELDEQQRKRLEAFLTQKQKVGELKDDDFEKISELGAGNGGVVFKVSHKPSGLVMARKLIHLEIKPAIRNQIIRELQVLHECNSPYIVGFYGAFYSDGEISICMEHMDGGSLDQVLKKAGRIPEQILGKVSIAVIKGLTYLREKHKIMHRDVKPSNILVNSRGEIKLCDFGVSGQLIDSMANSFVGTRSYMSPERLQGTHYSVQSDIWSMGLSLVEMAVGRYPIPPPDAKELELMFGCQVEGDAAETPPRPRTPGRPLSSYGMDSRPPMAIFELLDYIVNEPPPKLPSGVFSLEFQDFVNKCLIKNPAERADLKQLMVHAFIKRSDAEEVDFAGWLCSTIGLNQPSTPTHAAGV
Chain of Focal adhesion kinase 1 (Q05397 whole entry): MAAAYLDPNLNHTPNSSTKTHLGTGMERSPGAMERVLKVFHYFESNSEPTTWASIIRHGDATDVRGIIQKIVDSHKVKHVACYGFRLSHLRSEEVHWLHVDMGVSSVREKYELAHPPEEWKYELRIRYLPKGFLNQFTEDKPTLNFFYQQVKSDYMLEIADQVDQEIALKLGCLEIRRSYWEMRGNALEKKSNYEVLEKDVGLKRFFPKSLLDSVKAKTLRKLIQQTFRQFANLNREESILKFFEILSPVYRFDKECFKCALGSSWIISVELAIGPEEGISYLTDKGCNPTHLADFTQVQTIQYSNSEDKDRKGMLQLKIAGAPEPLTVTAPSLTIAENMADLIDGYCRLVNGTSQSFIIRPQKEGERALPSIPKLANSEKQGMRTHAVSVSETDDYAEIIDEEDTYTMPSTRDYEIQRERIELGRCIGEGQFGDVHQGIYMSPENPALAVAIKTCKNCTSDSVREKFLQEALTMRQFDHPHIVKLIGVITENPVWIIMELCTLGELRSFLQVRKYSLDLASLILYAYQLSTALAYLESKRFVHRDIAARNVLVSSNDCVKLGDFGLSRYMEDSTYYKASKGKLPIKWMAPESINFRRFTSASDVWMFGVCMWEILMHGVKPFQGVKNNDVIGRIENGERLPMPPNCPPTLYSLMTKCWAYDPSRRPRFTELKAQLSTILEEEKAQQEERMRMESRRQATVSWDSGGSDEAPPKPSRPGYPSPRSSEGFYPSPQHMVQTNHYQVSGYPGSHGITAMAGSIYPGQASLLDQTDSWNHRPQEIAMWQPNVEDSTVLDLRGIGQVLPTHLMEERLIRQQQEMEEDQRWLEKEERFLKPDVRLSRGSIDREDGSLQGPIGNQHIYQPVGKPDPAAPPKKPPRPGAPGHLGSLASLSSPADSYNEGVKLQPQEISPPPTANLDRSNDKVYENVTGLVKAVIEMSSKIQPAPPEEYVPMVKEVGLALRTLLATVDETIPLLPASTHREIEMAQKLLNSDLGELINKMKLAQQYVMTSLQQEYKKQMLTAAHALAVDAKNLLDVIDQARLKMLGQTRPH

`Cc1cnc(NC(=O)Nc2cc(Br)c(C)cc2OC[C@@H]2CNCCO2)cn1` [RABUSERTIB]: the Kd in experiment [1], in experiment [2], in [3], in experiment [4], in experiment [5] and in experiment [6] was > 30 µM (inactive) each time. For the same compound, the Kd in experiment [7], in [8] and in experiment [9] was > 30 µM (inactive) throughout.

Consider `CO[C@H]1C[C@@H]2CC[C@@H](C)[C@@](O)(O2)C(=O)C(=O)N2CCCC[C@H]2C(=O)O[C@H]([C@H](C)C[C@@H]2CC[C@@H](OP(C)(C)=O)[C@H](OC)C2)CC(=O)[C@H](C)/C=C(\C)[C@@H](O)[C@@H](OC)C(=O)[C@H](C)C[C@H](C)/C=C/C=C/C=C/1C` [RIDAFOROLIMUS], for which the Kd in experiment [1], in [2], in [3], in [4], in experiment [5] and in [6] was > 30 µM (inactive) each time. Moreover, the Kd in [7], in experiment [8] and in [9] was > 30 µM (inactive) each time.

With `N#CC1(c2ccc(NC(=O)c3cccnc3NCc3ccncc3)cc2)CCCC1` [RIVOCERANIB], the Kd in [1], in experiment [2], in experiment [3], in experiment [4], in [5] and in experiment [6] was > 30 µM (inactive) in each case. In addition, the Kd in [7], in [8] and in experiment [9] was > 30 µM (inactive) throughout.

For `O=c1[nH]ccc2cc(OC3CCNCC3)ccc12` [SAR-407899 FREE BASE], the Kd in experiment [1], in experiment [2], in experiment [3], in [4], in experiment [5] and in experiment [6] was > 30 µM (inactive) throughout. Besides, the Kd in [7], in [8] and in [9] was > 30 µM (inactive) in each case.

Turning to `CN1CCN(CCOc2cc(OC3CCOCC3)c3c(Nc4c(Cl)ccc5c4OCO5)ncnc3c2)CC1` [SARACATINIB], the Kd in [1] was > 30 µM (inactive); in [2], 2.33 µM (active); in experiment [3], > 30 µM (inactive); in [4], > 30 µM (inactive); in experiment [5], > 30 µM (inactive); in [6] it was > 30 µM (inactive). Besides, the Kd in [7], in [8] and in [9] was > 30 µM (inactive) throughout.

For the compound `Cn1cc(-c2cnn3c(N)c(Br)c([C@@H]4CCCNC4)nc23)cn1` [SCH-900776], the Kd in experiment [1], in [2], in experiment [3], in experiment [4], in [5] and in [6] was > 30 µM (inactive) each time. The Kd in experiment [7], in [8] and in [9] was > 30 µM (inactive) throughout.

For `CO[C@H]1C[C@@H]2CC[C@@H](C)[C@@](O)(O2)C(=O)C(=O)N2CCCC[C@H]2C(=O)O[C@H]([C@H](C)C[C@@H]2CC[C@@H](O)[C@H](OC)C2)CC(=O)[C@H](C)/C=C(\C)[C@@H](O)[C@@H](OC)C(=O)[C@H](C)C[C@H](C)/C=C/C=C/C=C/1C` [SIROLIMUS], the Kd in experiment [1], in experiment [2], in [3], in experiment [4], in [5] and in [6] was > 30 µM (inactive) each time. In addition, the Kd in [7], in experiment [8] and in experiment [9] was > 30 µM (inactive) each time.

Turning to `CO[C@H]1C[C@@H]2CC[C@@H](C)[C@@](O)(O2)C(=O)C(=O)N2CCCC[C@H]2C(=O)O[C@H]([C@H](C)C[C@@H]2CC[C@@H](OC(=O)C(C)(CO)CO)[C@H](OC)C2)CC(=O)[C@H](C)/C=C(\C)[C@@H](O)[C@@H](OC)C(=O)[C@H](C)C[C@H](C)/C=C/C=C/C=C/1C` [TEMSIROLIMUS], the Kd in experiment [1], in [2], in [3], in [4], in [5] and in [6] was > 30 µM (inactive) throughout. For the same compound, the Kd in [7], in experiment [8] and in experiment [9] was > 30 µM (inactive) in each case.

Regarding `COc1cc2c(Nc3ccc(Cl)c(Cl)c3F)ncnc2cc1OC[C@@H]1C[C@@H]2CN(C)C[C@@H]2C1` [TESEVATINIB], the Kd in [1], in experiment [2], in experiment [3], in experiment [4], in [5] and in [6] was > 30 µM (inactive) throughout. In addition, the Kd in [7], in [8] and in [9] was > 30 µM (inactive) in each case.

Regarding `O=C(Cc1ccc(-c2ccc(OCCN3CCOCC3)cc2)cn1)NCc1ccccc1` [TIRBANIBULIN], the Kd in experiment [1], in [2], in experiment [3], in experiment [4], in experiment [5] and in [6] was > 30 µM (inactive) in each case. For the same compound, the Kd in experiment [7], in [8] and in experiment [9] was > 30 µM (inactive) throughout.

As for `O=C1NC(=O)[C@@H](c2cn3c4c(cccc24)CCC3)[C@@H]1c1c[nH]c2ccccc12` [TIVANTINIB], the Kd in experiment [1], in experiment [2], in experiment [3], in experiment [4], in experiment [5] and in experiment [6] was > 30 µM (inactive) each time. The Kd in experiment [7], in [8] and in [9] was > 30 µM (inactive) each time.

In the case of `C[C@@H](NC(=O)c1ncnc(N)c1Cl)c1ncc(C(=O)Nc2cc(C(F)(F)F)c(Cl)cn2)s1` [TOVORAFENIB], the Kd in [1] is > 30 µM (inactive); in experiment [2], 0.172 µM (active); in [3], > 30 µM (inactive); in [4], > 30 µM (inactive); in [5], > 30 µM (inactive); in [6], > 30 µM (inactive). Moreover, the Kd in experiment [7], in experiment [8] and in [9] was > 30 µM (inactive) in each case.

In general, Kd refers to the concentration at which binding is half-saturated.

The values are drawn from ChEMBL document CHEMBL3991601, “The target landscape of clinical kinase drugs” (Science, 2017).
